# From paper PMC11904993, “Humanized Candida and NanoBiT Assays Expedite Discovery of Bdf1 Bromodomain Inhibitors With Antifungal Potential” (Advanced Science, 2025)
# Where two headings read alike, the source gives them in different places.
# Tests used:
# C. auris Bdf1 BD2 = C. auris Bdf1 BD2 (Candidozyma auris (Candida auris), UniProt A0AAW0VEM6); experiment: HTRF assay, inhibition of H4ac4 peptide binding
# CaBdf1 BD2 = target: T1, CaBdf1 BD2 (Candida albicans, UniProt Q5A4W8); experiment: HTRF assay, inhibition of H4ac4 peptide binding; set-up: species or system C. albicans
# T1 construct: BD1 (residues 193–327) and BD2 (residues 361–501) from CaBdf1 (Uniprot ID Q5A4W8); made in house; host or cells: E. coli BL21(DE3)
# T1 sequence (Q5A4W8 361-501): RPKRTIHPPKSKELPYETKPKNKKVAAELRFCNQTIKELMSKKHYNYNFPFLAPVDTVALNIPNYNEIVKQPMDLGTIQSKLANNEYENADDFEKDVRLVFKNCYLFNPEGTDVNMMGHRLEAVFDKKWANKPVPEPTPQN
# Bdf1/Swc4 = target: T2, Bdf1/Swc4 (Saccharomyces cerevisiae, UniProt P35817); experiment: NanoBiT assay, control pair; assay type: cell-based, S. cerevisiae; set-up: remaining activity: dose or concentration left out as unconfirmed
# T2 construct: expressed in transfected cells; host or cells: S. cerevisiae
# T2 sequence (P35817 whole entry): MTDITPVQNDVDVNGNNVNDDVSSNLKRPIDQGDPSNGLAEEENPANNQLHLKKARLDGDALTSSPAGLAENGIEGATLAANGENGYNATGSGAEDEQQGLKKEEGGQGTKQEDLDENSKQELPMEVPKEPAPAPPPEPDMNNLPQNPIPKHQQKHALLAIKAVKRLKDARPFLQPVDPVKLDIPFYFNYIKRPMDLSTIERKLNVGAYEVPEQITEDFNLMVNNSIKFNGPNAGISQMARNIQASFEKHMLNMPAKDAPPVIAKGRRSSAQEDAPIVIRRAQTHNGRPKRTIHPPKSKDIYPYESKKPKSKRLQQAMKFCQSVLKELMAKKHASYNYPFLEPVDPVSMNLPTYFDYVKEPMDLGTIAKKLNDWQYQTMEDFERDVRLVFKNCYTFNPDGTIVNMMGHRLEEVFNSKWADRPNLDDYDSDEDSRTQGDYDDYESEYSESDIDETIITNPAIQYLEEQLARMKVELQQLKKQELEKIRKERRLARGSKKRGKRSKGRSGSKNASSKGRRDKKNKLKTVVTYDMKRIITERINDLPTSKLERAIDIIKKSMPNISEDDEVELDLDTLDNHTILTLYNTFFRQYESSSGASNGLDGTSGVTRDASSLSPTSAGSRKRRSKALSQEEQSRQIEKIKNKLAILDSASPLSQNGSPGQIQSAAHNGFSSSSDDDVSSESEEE
# T2 sequence (P53201 whole entry, further chain): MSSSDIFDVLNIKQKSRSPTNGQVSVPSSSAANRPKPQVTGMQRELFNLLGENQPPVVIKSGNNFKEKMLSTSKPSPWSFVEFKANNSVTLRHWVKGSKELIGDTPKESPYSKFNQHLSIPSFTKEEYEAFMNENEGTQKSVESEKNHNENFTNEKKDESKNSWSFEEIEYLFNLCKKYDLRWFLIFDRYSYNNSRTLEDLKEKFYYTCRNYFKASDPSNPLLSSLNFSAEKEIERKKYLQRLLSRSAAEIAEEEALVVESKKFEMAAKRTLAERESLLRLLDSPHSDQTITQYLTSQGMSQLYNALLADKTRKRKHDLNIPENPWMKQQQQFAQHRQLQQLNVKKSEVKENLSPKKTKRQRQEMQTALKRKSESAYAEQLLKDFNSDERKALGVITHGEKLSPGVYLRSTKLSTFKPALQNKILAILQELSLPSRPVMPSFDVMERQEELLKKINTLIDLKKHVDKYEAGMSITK
# Protocol: Yeast strains were distributed in 96‐well microplates containing SC(MSG)‐U medium (SC‐U medium with 0.1% monosodium glutamate instead of ammonium sulfate as a nitrogen source) and grown at 30 °C. 40 µL of exponentially growing cells were transferred in white 96‐well half‐area microplates (ProxiPlate Plus, Greiner Bio‐One) previously filled with 40 µL per well of SC(MSG) containing 100 µM furimazine. The microplates were then incubated for 10 min in the dark before the luminescence signals were recorded using a microplate reader (Ensight, PerkinElmer). Luminescence measurements were performed for 1 s per well at a distance of 0.1 mm between the plate and the detector. The luminescence values were normalized with the optical density (OD600) of the corresponding cultures. For NanoBiT assays with BET inhibitors, yeast cultures were grown overnight at 30 °C in SC(MSG) medium in the presence of serial dilutions of 24c and I‐BET726. Overnight cultures were diluted 5 fold in SC(MSG) and incubated for 1 h before luminescence was recorded as previously indicated. Luminescence values for each condition were normalized using the average of the luminescence recorded for the Bdf1/Swc4 and Bmh1/Bmh2 controls.
# C. auris Bdf1 BD1 = C. auris Bdf1 BD1 (Candidozyma auris (Candida auris), UniProt A0AAW0VEM6); experiment: HTRF assay, inhibition of H4ac4 peptide binding
# Chain of C. auris Bdf1 BD1 (A0AAW0VEM6 entry or part of it): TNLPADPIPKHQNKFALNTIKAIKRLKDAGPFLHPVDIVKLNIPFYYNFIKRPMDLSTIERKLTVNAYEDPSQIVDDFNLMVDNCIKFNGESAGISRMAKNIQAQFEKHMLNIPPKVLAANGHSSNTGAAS
# CgBdf1 BD2 = CgBdf1 BD2 (Candida glabrata, UniProt Q6FWV7); experiment: biochemical; assay type: binding, C. glabrata
# Chain of CgBdf1 BD2 (Q6FWV7 entry or part of it): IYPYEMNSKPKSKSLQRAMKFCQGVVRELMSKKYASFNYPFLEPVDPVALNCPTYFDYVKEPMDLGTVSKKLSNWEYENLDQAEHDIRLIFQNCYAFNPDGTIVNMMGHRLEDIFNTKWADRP
# CaBdf1 BD1 = target: T3, CaBdf1 BD1 (Candida albicans, UniProt Q5A4W8); experiment: HTRF assay, inhibition of H4ac4 peptide binding; set-up: species or system C. albicans
# T3 construct: BD1 (residues 193–327) and BD2 (residues 361–501) from CaBdf1 (Uniprot ID Q5A4W8); made in house; host or cells: E. coli BL21(DE3)
# T3 sequence (Q5A4W8 193-327): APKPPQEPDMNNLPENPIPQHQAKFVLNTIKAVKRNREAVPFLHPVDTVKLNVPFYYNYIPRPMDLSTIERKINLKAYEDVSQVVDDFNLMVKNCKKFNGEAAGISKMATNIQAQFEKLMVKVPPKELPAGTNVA
# [1] = read-out: HTRF signal, normalized (Figure 5A data)
# Chain of C. auris Bdf1 BD2 (A0AAW0VEM6 entry or part of it): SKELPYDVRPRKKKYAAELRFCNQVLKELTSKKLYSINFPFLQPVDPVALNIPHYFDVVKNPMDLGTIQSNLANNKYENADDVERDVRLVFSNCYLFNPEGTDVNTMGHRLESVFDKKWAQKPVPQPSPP
smiles,measurement,setting,value
CC(=O)N1c2ccc(-c3ccc(C(=O)O)cc3)cc2C(Nc2ccc(Cl)cc2)CC1C (stereo not drawn) [I-BET726],remaining activity at 3.2 µM,"C. auris Bdf1 BD2; CauBD2, 3200 nM, read-out: HTRF signal, normalized (Figure 5A data)",5.12%
same,remaining activity at 8 µM,"C. auris Bdf1 BD2; CauBD2, 8000 nM, read-out: HTRF signal, normalized (Figure 5A data)",5.06%
same,IC50,"C. auris Bdf1 BD2; Fig 5A, four replicates, read-out: IC50 (μM) BD2, C. aur. Bdf1",0.23 ± 0.02 µM
same,remaining activity at 0.00524 µM,C. auris Bdf1 BD2; [1],90.6%
same,remaining activity at 8 µM,C. auris Bdf1 BD2; [1],2.46%
same,remaining activity at 0.0021 µM,"CaBdf1 BD2; CaBD2, 2.10 nM, read-out: HTRF signal, normalized (Figure 5A data)",108%
same,remaining activity at 0.01311 µM,"CaBdf1 BD2; CaBD2, 13.11 nM, read-out: HTRF signal, normalized (Figure 5A data)",98.4%
same,remaining activity at 0.03277 µM,"CaBdf1 BD2; CaBD2, 32.77 nM, read-out: HTRF signal, normalized (Figure 5A data)",95.1%
same,remaining activity at 0.2048 µM,"CaBdf1 BD2; CaBD2, 204.8 nM, read-out: HTRF signal, normalized (Figure 5A data)",61.4%
same,remaining activity at 0.512 µM,"CaBdf1 BD2; CaBD2, 512 nM, read-out: HTRF signal, normalized (Figure 5A data)",25.6%
same,remaining activity at 1.28 µM,"CaBdf1 BD2; CaBD2, 1280 nM, read-out: HTRF signal, normalized (Figure 5A data)",11.4%
same,IC50,"CaBdf1 BD2; Fig 5A, four replicates, read-out: IC50 (μM) BD2, C. alb. Bdf1",0.63 ± 0.05 µM
same,remaining activity at 0.00524 µM,CaBdf1 BD2; [1],102%
same,remaining activity at 24.41 µM,"Bdf1/Swc4; Bdf1-SmBiT, Swc4-LgBiT, 0.02441 mM, Fig 4C, read-out: Normalized nanoBiT signal",95%
same,remaining activity at 97.66 µM,"Bdf1/Swc4; Bdf1-SmBiT, Swc4-LgBiT, 0.09766 mM, Fig 4C, read-out: Normalized nanoBiT signal",93%
same,remaining activity at 195.31 µM,"Bdf1/Swc4; Bdf1-SmBiT, Swc4-LgBiT, 0.19531 mM, Fig 4C, read-out: Normalized nanoBiT signal",95%
same,remaining activity at 390.63 µM,"Bdf1/Swc4; Bdf1-SmBiT, Swc4-LgBiT, 0.39063 mM, Fig 4C, read-out: Normalized nanoBiT signal",91%
same,remaining activity at 781.25 µM,"Bdf1/Swc4; Bdf1-SmBiT, Swc4-LgBiT, 0.78125 mM, Fig 4C, read-out: Normalized nanoBiT signal",90%
same,remaining activity,"Bdf1/Swc4; Bdf1-SmBiT, Swc4-LgBiT, […], Fig 4C, read-out: Normalized nanoBiT signal",99%
same,"inhibition of NanoBiT signal, Bdf1/Swc4",Bdf1/Swc4; control pair independent of Bdf1 BDs,not observed
same,remaining activity at 48.83 µM,Bdf1/Swc4; read-out: Normalized nanoBiT signal,92%
same,remaining activity at 0.0021 µM,"C. auris Bdf1 BD1; CauBD1, 2.10 nM, read-out: HTRF signal, normalized (Figure 5A data)",105%
same,remaining activity at 0.01311 µM,"C. auris Bdf1 BD1; CauBD1, 13.11 nM, read-out: HTRF signal, normalized (Figure 5A data)",103%
same,remaining activity at 0.03277 µM,"C. auris Bdf1 BD1; CauBD1, 32.77 nM, read-out: HTRF signal, normalized (Figure 5A data)",106%
same,remaining activity at 0.2048 µM,"C. auris Bdf1 BD1; CauBD1, 204.8 nM, read-out: HTRF signal, normalized (Figure 5A data)",107%
same,remaining activity at 1.28 µM,"C. auris Bdf1 BD1; CauBD1, 1280 nM, read-out: HTRF signal, normalized (Figure 5A data)",100%
same,remaining activity at 3.2 µM,"C. auris Bdf1 BD1; CauBD1, 3200 nM, read-out: HTRF signal, normalized (Figure 5A data)",74.9%
same,remaining activity at 8 µM,"C. auris Bdf1 BD1; CauBD1, 8000 nM, read-out: HTRF signal, normalized (Figure 5A data)",34.7%
same,IC50,"C. auris Bdf1 BD1; Fig 5A, four replicates, read-out: IC50 (μM) BD1, C. aur. Bdf1",14.7 ± 0.1 µM
same,remaining activity at 0.00524 µM,C. auris Bdf1 BD1; [1],103%
same,remaining activity at 0.512 µM,C. auris Bdf1 BD1; [1],103%
same,activity at 0.0021 µM,"CgBdf1 BD2; 24 h, CgBD2, 2.10 nM, read-out: HTRF signal, normalized (Figure 5A data)",98.3%
same,activity at 0.01311 µM,"CgBdf1 BD2; 24 h, CgBD2, 13.11 nM, read-out: HTRF signal, normalized (Figure 5A data)",91.8%
same,activity at 0.03277 µM,"CgBdf1 BD2; 24 h, CgBD2, 32.77 nM, read-out: HTRF signal, normalized (Figure 5A data)",80.2%
same,activity at 0.08192 µM,"CgBdf1 BD2; 24 h, CgBD2, 81.92 nM, read-out: HTRF signal, normalized (Figure 5A data)",54.9%
same,activity at 0.2048 µM,"CgBdf1 BD2; 24 h, CgBD2, 204.8 nM, read-out: HTRF signal, normalized (Figure 5A data)",20.4%
same,activity at 0.512 µM,"CgBdf1 BD2; 24 h, CgBD2, 512 nM, read-out: HTRF signal, normalized (Figure 5A data)",9.19%
same,activity at 1.28 µM,"CgBdf1 BD2; 24 h, CgBD2, 1280 nM, read-out: HTRF signal, normalized (Figure 5A data)",5.95%
same,activity at 0.00524 µM,"CgBdf1 BD2; 24 h, read-out: HTRF signal, normalized (Figure 5A data)",93.2%
same,IC50,"CgBdf1 BD2; Fig 5A, four replicates, read-out: IC50 (μM) BD2, C. gla. Bdf1",0.085 ± 0.012 µM
same,remaining activity at 0.0021 µM,"CaBdf1 BD1; CaBD1, 2.10 nM, read-out: HTRF signal, normalized (Figure 5A data)",103%
same,remaining activity at 0.01311 µM,"CaBdf1 BD1; CaBD1, 13.11 nM, read-out: HTRF signal, normalized (Figure 5A data)",96%
same,remaining activity at 0.03277 µM,"CaBdf1 BD1; CaBD1, 32.77 nM, read-out: HTRF signal, normalized (Figure 5A data)",90.6%
same,remaining activity at 0.08192 µM,"CaBdf1 BD1; CaBD1, 81.92 nM, read-out: HTRF signal, normalized (Figure 5A data)",66.5%
same,remaining activity at 0.2048 µM,"CaBdf1 BD1; CaBD1, 204.8 nM, read-out: HTRF signal, normalized (Figure 5A data)",27%
same,remaining activity at 0.512 µM,"CaBdf1 BD1; CaBD1, 512 nM, read-out: HTRF signal, normalized (Figure 5A data)",5.16%
same,IC50,"CaBdf1 BD1; Fig 5A, four replicates, read-out: IC50 (μM) BD1, C. alb. Bdf1",0.27 ± 0.02 µM
same,remaining activity at 0.00524 µM,CaBdf1 BD1; [1],103%
same,remaining activity at 0.01311 µM,CaBdf1 BD1; [1],99.9%
same,remaining activity at 1.28 µM,CaBdf1 BD1; [1],2.74%
same,remaining activity at 3.2 µM,CaBdf1 BD1; [1],1.61%
